Six molecules from patent US20100144788A1 (priority 2007, published 2010) can be followed below.

Series [1] in a line: Hydrate formation when precipitated from water. In kind it is physicochemical. The text has this:
Crystals used in the present invention may exist as solvates, i.e. crystals wherein solvent molecules form part of the crystal structure. The solvate may be formed from water, in which case the solvates are often referred to as hydrates. Alternatively, the solvates may be formed from other solvents, such as e.g. ethanol, acetone, or ethyl acetate. The exact amount of solvate often depends on the conditions. For instance, hydrates will typically loose water as the temperature is increased or as the relative humidity is decreased.

Another series deals with T1, NET (Rattus norvegicus, UniProt Q9WTR4).
T1 construct: rat cortical synaptosome preparation; from tissue; host or cells: rat cortical synaptosomes
T1 sequence (Q9WTR4 1-597): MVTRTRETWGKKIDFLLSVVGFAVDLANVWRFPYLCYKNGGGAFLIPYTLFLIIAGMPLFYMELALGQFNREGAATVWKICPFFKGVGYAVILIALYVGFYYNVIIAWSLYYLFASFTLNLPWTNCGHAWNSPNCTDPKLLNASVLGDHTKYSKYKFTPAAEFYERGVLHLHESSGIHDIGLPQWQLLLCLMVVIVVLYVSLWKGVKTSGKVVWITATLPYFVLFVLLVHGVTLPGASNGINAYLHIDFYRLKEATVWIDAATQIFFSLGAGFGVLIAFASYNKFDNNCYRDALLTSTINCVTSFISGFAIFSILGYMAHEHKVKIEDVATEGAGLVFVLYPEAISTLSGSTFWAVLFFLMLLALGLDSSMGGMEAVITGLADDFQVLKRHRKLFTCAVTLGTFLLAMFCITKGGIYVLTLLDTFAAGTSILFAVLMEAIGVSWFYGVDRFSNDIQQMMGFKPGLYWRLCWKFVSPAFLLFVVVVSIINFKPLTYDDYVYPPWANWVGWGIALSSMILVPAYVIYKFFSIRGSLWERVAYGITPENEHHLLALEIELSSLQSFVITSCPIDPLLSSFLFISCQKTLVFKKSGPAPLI
The series can be described thus: Norepinephrine (NE) reuptake inhibition, rat cortical synaptosomes, [3H]NE. In kind it is biochemical. The following applies: [3H]NE 10 nM. The method, then:
Non-specific uptake was determined in the presence of 10 μM talsupram or citalopram and the total uptake was determined in the presence of buffer. Aliquots were incubated for 15 minutes at 37° C. […] Filters were washed and counted in a Wallac MicroBeta counter.

In series [2] the target is T2, human alpha1A-7 receptors (Homo sapiens, UniProt P35348).
T2 construct: expressed in transfected cells; host or cells: CHO cells
T2 sequence (P35348 1-466): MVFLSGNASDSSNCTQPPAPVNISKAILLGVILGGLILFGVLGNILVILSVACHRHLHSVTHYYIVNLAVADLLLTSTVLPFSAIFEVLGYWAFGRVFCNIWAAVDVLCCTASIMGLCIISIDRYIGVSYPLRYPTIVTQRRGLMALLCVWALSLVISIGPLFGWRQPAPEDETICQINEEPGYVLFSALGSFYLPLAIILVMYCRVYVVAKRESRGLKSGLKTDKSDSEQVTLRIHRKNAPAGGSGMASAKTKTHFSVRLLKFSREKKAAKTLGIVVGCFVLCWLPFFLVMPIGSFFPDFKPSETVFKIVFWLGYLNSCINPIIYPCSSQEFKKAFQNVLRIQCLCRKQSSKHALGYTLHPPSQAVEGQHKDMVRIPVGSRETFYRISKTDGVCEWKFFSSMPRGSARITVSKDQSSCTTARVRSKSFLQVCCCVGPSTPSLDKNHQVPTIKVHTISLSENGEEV
Nature of the series: Antagonism of adrenaline evoked release of Ca2+ in CHO cells expressing human alpha1A-7 receptors (FLIPR). In kind it is cell-based. The following applies: functional assay. The method, then: These experiments were carried out essentially as described below. All cells were cultured in DMEM medium supplemented with 10% BCS, 4 mM L-glutamine (or 2 mM in the case of COS-7), and 100 units/ml penicillin plus 100 μg/ml streptomycin, at 37° C., in 5% CO2. Twenty-four hours prior to assays, CHO cells expressing the human alpha1A-7 receptors were seeded into 384-well black wall microtiter plates coated with poly-D-lysine. […] After excess dye was discarded, cells were washed in assay buffer and layered with a final volume equal to 45 μl/well (or 30 ul/well for antagonist assay). […] Basal fluorescence was monitored in a fluorometric imaging plate reader or FLIPR™ from Molecular Devices (Sunnyvale, Calif.) with an excitation wavelength of 488 nm and an emission range of 500 to 560 nm. Laser excitation energy was adjusted so that basal fluorescence readings were approximately 8,000 relative fluorescent units (RFU). Cells were then stimulated at room temperature with agonists diluted in assay buffer (15 μl), and RFU were measured at 1.5 second intervals over a period of 2.5 min. Maximum change in fluorescence was calculated for each well. Concentration-response curves derived from the maximum change in fluorescence were analyzed by nonlinear regression (Hill equation).

Series [3] has as its system extracellular levels of acetylcholine. Nature of the series: Microdialysis, extracellular acetylcholine in prefrontal cortex of freely-moving Wistar rats (Example 2F). In kind it is in vivo, rat. The following applies: s.c. The protocol: Male Wistar rats (280-350 g; Harlan, Zeist, The Netherlands) were used for the experiments. Rats were individually housed in plastic cages (30×30×40 cm) and had ad libitum access to food and water.
Rats were anesthetized using isoflurane (2%, 400 mL/min N2O, 400 ml/min O2). Lidocain (10% m/v) was used for local anesthesia. Each animal was placed into a stereotaxic frame (Kopf instruments, USA), and home-made I-shaped probes (Hospal AN 69 membrane, 4 mm exposed surface) were inserted into the medial prefrontal cortex (mPFC) using the rat brain atlas of Paxinos and Watson (1982). Coordinates for the tip of the probe was mPFC [AP=3.4 mm, L=−0.8 mm, V=5.0 mm]. The probe was then fixed to the skull with dental cement and a srew. Flunixin (1 mg/kg s.c.) was administered as post-operative analgesic.
Experiments were carried out 24-48 hours after surgery. […] Samples were collected by an automated fraction collector (CMA 142), and stored at −80° C. until analyzed. […]
Concentrations of acetylcholine were determined by HPLC with tandem mass spectrometry (MS/MS) detection. […]
The LC/MS analyses were performed using a API 4000 MS/MS system consisting of a API 4000 MS/MS detector and a Turbo Ion Spray interface (both from Applied Biosystems, the Netherlands). […] Data were calibrated and quantitated using the Analyst™ data system (Applied Biosystem, version 1.2). […]

Series [4] shares this test system. The series can be described thus: Microdialysis, extracellular acetylcholine in prefrontal cortex and ventral hippocampus of Sprague-Dawley rats (Example 2G). Type of series: in vivo, rat. The method, then:
Male Sprague-Dawley rats, initially weighing 275-300 g, were used. The animals were housed under a 12-hr light/dark cycle under controlled conditions for regular in-door temperature (21±2° C.) and humidity (55±5%) with food and tap water available ad libitum.
Rats were anaesthetised with hypnorm/dormicum (2 ml/kg) and intracerebral guide cannulas (CMA/12) were stereotaxically implanted into the hippocampus, aiming to position the dialysis probe tip in the ventral hippocampus (co-ordinates: 5,6 mm posterior to bregma, lateral −5,0 mm, 7,0 mm ventral to dura or in the frontal cortex (co-ordinates: 3,2 mm anterior to bregma; lateral, 0,8 mm; 4,0 mm ventral to dura). Anchor screws and acrylic cement were used for fixation of the guide cannulas. The body temperature of the animals was monitored by rectal probe and maintained at 37° C. The rats were allowed to recover from surgery for 2 days, housed singly in cages. […]
Concentration of acetylcholine (ACh) in the dialysates was analysed by means of HPLC with electrochemical detection using a mobile phase consisting of 100 mM disodium hydrogenphosphate, 2.0 mM octane sulfonic acid, 0.5 mM tetramethyl-ammonium chloride and 0.005% MB (ESA), pH 8.0. […] The latter was detected electrochemical by using a platinum electrode (Analytical cell: ESA, model 5040). […]

Series [5] concerns Spontaneously hypertensive rats (SHR). Nature of the series: Spontaneously hypertensive rats, animal model of ADHD: operant task with delayed food-reward and circadian activity recording. Type of series: in vivo, rat. The method, then:
Core symptoms of ADHD are attention deficit, hyperactivity and increased impulsiveness. Spontaneously hypertensive rats (SHR) were used as animal model for attention deficit hyperactivity disorder (ADHD), Wistar Kyoto rats (the root strain of SHR) served as controls [Biol. Psychiatry. 57, 1239-47, 2005]. To assess these symptoms, an operant task involving a delayed food-reward was used to measure attention- and impulsiveness-related parameters. Attention deficits were measured as increase in the number of lever presses on the wrong side. Impulsiveness was measured as lever presses and reward chamber inspections during the OFF state in test sessions without delayed reward and during the delay interval in the test sessions with delayed rewarding. Hyperactivity was monitored by circadian recording in infra-red cages.
Methods: Operant testing was performed in 20 hours sessions, each in operant behaviour cages with two levers and adjacent reward chambers on the right and left side of the lever panel. The animals had access to food only via lever presses, and fluid was freely available. Training and testing consisted of the following phases:
• (1) Both levers were continuously active (indicated by a signal light). […] The signal light on the correct side indicated the state of the lever (ON or OFF).
• (1) Like Acquisition (3) • (2) Like (1), except that after a lever press of an active lever, the reward was not presented immediately, but after a delay interval of 5 seconds.

A short description of series [6]: Solubility of salts in water with pH of the saturated solution and identity of the precipitate.
Where [7] appears, read: SHR rats, 5 and 10 mg/kg i.p., injected 30 min before testing.
Where [8] appears, read: SHR, methylphenidate 2 and 5 mg/kg i.p. intermittent, ~10 mg/kg/day chronic via drinking water.

pIC50: −log10 of the molar value.

For `O=C(O)CCC(=O)O` [Succinic acid, 1,4-butanedioic acid, 2:1], the formation of hydrates entry in series [1] is “do”.

The molecule `Cc1ccc(Sc2ccccc2C2CCNCC2)cc1` [compound I, 4-[2-(4-methylphenylsulfanyl)-phenyl]piperidine] gave a pIC50 against NET of 7.64. Also, the “adrenaline evoked release of Ca2+ from intracellular stores” value in series [2] is listed as “antagonises”. For the same molecule, the “extracellular level of acetylcholine” value in series [3] was “increase”. The “extracellular level of acetylcholine” value in series [4] was “increase”. In addition, the “acquisition of the task or general motivation of food seeking” value in series [5] (SHR rats, 5 and 10 mg/kg i.p.) is listed as “did not affect”. Moreover, in series [5] (setting [7]), the attention deficits result is recorded as “reduced” and the impulsiveness result was “reduced”. The “hyperactivity - locomotor activity” value in series [5] (SHR rats, 5 and 10 mg/kg i.p., circadian activity monitoring, for 1 hour without prolonged effects) is “dose-dependently depressed”.

Take `Br.Cc1ccc(Sc2ccccc2C2CCNCC2)cc1` [HBr, 4-(2-p-Tolylsulfanyl-phenyl)-piperidine hydrobromide]: the formation of hydrates result in series [1] was “does not form hydrates”.

For the molecule `COC(=O)C(c1ccccc1)C1CCCCN1` (centres unmarked) [Methylphenidate, reference compound], in series [5] (setting [8]), the attention deficit result was “no reduction” and the impulsiveness result is listed as “no reduction”. Moreover, the “time course of activity” value in series [5] (chronic administration via drinking water, ~10 mg/kg/day) is listed as “did not alter”. Also, in series [5] (intermittent administration, 2 and 5 mg/kg i.p., effect lasted a few hours), the “hyperactivity of SHR” value is “markedly and dose-dependently aggravated”.

Consider `Cc1ccc(Sc2ccccc2C2CCNCC2)cc1`, for which, in series [1], the formation of hydrates result is “do”.

For the molecule `O=C(O)CCCC(=O)O` [Glutaric acid, 1,5-pentanedioic acid 1:1], the “Resulting pH” value in series [6] (pH in the saturated solution of the salt in water) was determined as 4.6. For the same molecule, the Precipitate result in series [6] (whether precipitate isolated after the solubility determination is identical to the compound dissolved, indicative of hydrate formation) is reported as “=start”.
